We go through three molecules from patent publication US20240059725A1, “COUMARIN COMPOUNDS AND A PROCESS FOR PREPARATION THEREOF” (priority 2021, published 2024).

Converted amounts (≈) assume the structure as drawn.

The test system of series [1] is Human colon carcinoma (HCT-116) cell line. As to the kind of experiment: Anticancer activity, MTT assay against HCT-116. The series is classed as cell-based. The settings on record: for IC50: Homo sapiens, HCT-116, interpolated from graph (FIG. 5). On the procedure:
(§1) The anticancer activity of the compound (3) denoted as “P” and compound (4) denoted as “DP” was assessed invitro by MTT 3-(4,5-dimethylthiazol-2-yl)-2,5-diphenyltetrazolium bromide assay against Human colon carcinoma (HCT-116) cell lines and Human breast adenocarcinoma (MDA-MB-468) respectively.
(§2) RPMI-1640, fetal bovine serum (FBS), penicillin, streptomycin was procured from HiMedia (Mumbai, India). Doxorubicin, MTT 3-(4,5-dimethylthiazol-2-yl)-2,5-diphenyltetrazolium bromide were procured from Sigma Aldrich (USA). The chemicals used were of analytical or HPLC grade. Human breast adenocarcinoma (MDA-MB-468), Human colon carcinoma (HCT-116) was procured from NCCS, Pune, India. The cell line was grown in the RPMI-1640 with 2 mM L-glutamine, supplemented with 10% FBS, penicillin (100 IU/mL) and streptomycin (100 μg/mL) at 37° C. in a 95% humidified CO2 incubator with 5% CO2 atmosphere. The cell lines were passaged twice weekly for maintaining sub-confluent state.
(§3) MTT assay was used as cell viability assay. The principle of the assay lies in the fact that the MTT is reduced to formazan crystals by mitochondrial dehydrogenase of the viable cells. The anticancer activity of compounds (3) and (4) was assessed invitro by MTT 3-(4,5-dimethylthiazol-2-yl)-2,5-diphenyltetrazolium bromide assay based on the methods by Mosmann, T and Bose et.al. (Mosmann, T. Journal of Immunological methods. 1983, 65, 55-63; and Bose, D. S.; Idrees, M.; Jakka, N. M.; Rao, J. V. J. Comb. Chem. 2010, 12, 100-110). Doxorubicin (DXN) a known anticancer drug was used as a reference compound in the assay. The treated and untreated cells were washed with PBS (Phosphate buffer saline) and MTT (100 μg/ml) was added and incubated at 37° C. for 5 hr. The MTT was then removed, and the formazan crystals were dissolved by adding DMSO. The absorbance at 540 nm represents the viable cells. The absorbance was recorded using Multiskan spectrum, Thermo scientific. […] The absorbance from the untreated cells was defined as 100% viable cells. The % viable cells were plotted (Y-axis) against concentration (X-axis). The IC50 values were interpolated from the graphs of FIGS. 5 and 6.

Series [2] can be described thus: Cytotoxicity MTT assay in HEK 293 cell line. The series is classed as cell-based. As to conditions: human, HEK 293 cells, 48 hr of treatment, read-out: IC-50 value (cytotoxicity). On the procedure:
Human embryonic kidney HEK 293 cell line were cultured in complete DMEM (Dulbecco's modified eagle medium) high glucose medium with 10% foetal bovine serum and 1% Penicillin Streptomycin and grown at 37° C.in a humidified incubator with 5% CO2. The cells were grown in T-25 flasks till about 80% confluency and 5000cells/well were seeded in a 96 well cell culture plate.
After 24 hr the cells were treated with all the concentrations of the drug (compound (4)) in triplicates and incubated for 48 hr.
After 48 hr of incubation MTT was added at a concentration of 0.5 mg/ml and incubated at 37° C. for 4 hr. After 4 hr the media was discarded from each well and DMSO was added. After 30 mins of incubation at 37° C.the colorimetric data was taken at 570 nm.

Series [3] concerns RAW 264.7 cells. As to the kind of experiment: Flow cytometry analysis of Reactive Oxygen Species production (DCFDA) in LPS induced RAW cell line. The series is classed as cell-based. The settings on record: RAW cell line treated along with LPS, 48 hours. On the procedure: RAW cell line was cultured in a T 25 flask in DMEM. After the cells reached confluency evel up to 90 percent, they were seeded in 6 well plates at 1 lakh cells/well. After adhesion of cells drugs were treated along with LPS and kept for 48 hours.
Flow cytometry analysis of Reactive Oxygen Species production on RAW cell line:
After 48 hr of treatment cells were harvested and stained with DCFDA and run-on flow cytometer.
A general note: In flow cytometry, cells or beads pass a laser one at a time.

The subject of series [4] is HEK cell line. The series can be described thus: ROS production in HEK cell line. Format: cell-based, Human.
The test system of series [5] is Human breast adenocarcinoma (MDA-MB-468) cell line. As to the kind of experiment: Anticancer activity, MTT assay against MDA-MB-468. The series is classed as cell-based. As to conditions: for IC50: Homo sapiens, MDA-MB-468, interpolated from graph (FIG. 6). On the procedure: as §1, §2, §3
Background: Tetrazolium assays rely on reduction of a dye to a coloured formazan, in cell work by metabolically active cells.

With `CC1(C)OC2OC(COC(=O)c3cc4ccccc4oc3=O)C3OC(C)(C)OC3C2O1` (stereo not drawn) [Compound (3)], the “Percentage of cell death” value in series [1] (HCT-116, 1.0 μg/mL) stood at 25.81 ± 0.015%; in series [1] (HCT-116, 2.0 μg/mL), 44.01 ± 0.028%; in series [1] (HCT-116, 5.0 μg/mL), 61.45 ± 0.006%; in series [1] (HCT-116, 10.0 μg/mL), 75.01 ± 0.076%; in series [1] (HCT-116, 25.0 μg/mL) it was 88.64 ± 0.018%. The IC50 in series [1] turned out to be 3.8 µg/mL (≈ 8.79 µM).
With `O=C(OCC1OC(O)C(O)C(O)C1O)c1cc2ccccc2oc1=O` (stereo not drawn) [Compound (4)], in series [2], the IC50 at 48 h was > 1000 µg/mL. The values for the ROS production entry in series [3] and in series [4] were “able to produce ROS in all concentrations” and “no ROS production”, respectively. Also, the IC50 in series [5] stood at 3.2 µg/mL (≈ 9.08 µM). Also, the “Percentage of cell death” value was 25.71 ± 0.003% in series [5] (MDA-MB-468, 1.0 μg/mL); 42.27 ± 0.026% in series [5] (MDA-MB-468, 2.0 μg/mL); 66.49 ± 0.007% in series [5] (MDA-MB-468, 5.0 μg/mL); 78.66 ± 0.018% in series [5] (MDA-MB-468, 10.0 μg/mL); 86.10 ± 0.015% in series [5] (MDA-MB-468, 25.0 μg/mL).
Regarding `COc1cccc2c1C(=O)c1c(O)c3c(c(O)c1C2=O)C[C@@](O)(C(=O)CO)C[C@@H]3O[C@H]1C[C@H](N)[C@H](O)[C@H](C)O1` [DXN, Doxorubicin, reference compound], the “Percentage of cell death” value in series [1] (HCT-116, 1.0 μg/mL) stood at 16.12 ± 0.001%; in series [1] (HCT-116, 2.0 μg/mL), 31.68 ± 0.012%; in series [1] (HCT-116, 5.0 μg/mL) it was 52.34 ± 0.015%; in series [1] (HCT-116, 10.0 μg/mL), 63.76 ± 0.0031%; in series [1] (HCT-116, 25.0 μg/mL), 73.45 ± 0.060%; in series [5] (MDA-MB-468, 1.0 μg/mL), 16.12 ± 0.001%. For the same molecule, the “Percentage of cell death” value in series [5] (MDA-MB-468, 2.0 μg/mL) amounted to 31.68 ± 0.012%; in series [5] (MDA-MB-468, 5.0 μg/mL), 52.34 ± 0.015%; in series [5] (MDA-MB-468, 10.0 μg/mL) it was 63.76 ± 0.0031%; in series [5] (MDA-MB-468, 25.0 μg/mL), 73.45 ± 0.060%. The IC50 in series [1] and in series [5] was 5 µg/mL (≈ 9.2 µM) in each case.
